Assay [1] relates to PBMC (human peripheral blood mononuclear cell). In words: Alamar blue (AB) cytotoxicity assay, PBMC noncancerous cells. The class given is cell-based. Conditions: PBMC non-cancer cells, 72 h. For orientation: Resazurin is reduced to fluorescent resorufin, in cell work by metabolically active cells.
Assay [2] deals with HL-60 cells. Kind of assay: Annexin V-FITC/PI apoptosis assay by flow cytometry. The assay is classed as cell-based, human. As to conditions: annexin V-FITC/PI, 24 and 48 h. Here is the method:
Additionally, annexin V, which is a Ca^2+-dependent protein with high affinity for phosphatidylserine, was conjugated to a fluorochrome to detect phosphatidylserine exposure using flow cytometry. Since phosphatidylserine exposure precedes the loss of membrane integrity, annexin V staining was used along with the dye PI to identify early and late apoptotic cells, as well as necrotic cells. Therefore, annexin V-FITC/PI double staining was applied to HL-60 cells that were treated with the [Ru(PPh3)2(Thy)(bipy)]PF6 complex after 24 and 48 h of incubation, and the numbers of viable, early apoptotic, late apoptotic, and necrotic cells were quantified by flow cytometry (Figure 5).
Figure 5 Evaluation of the apoptosis induced by the [Ru(PPh3)2(Thy)(bipy)]PF6 complex (CRT) in HL-60 cells determined by flow cytometry using annexin V-FITC/PI staining after 24 and 48 h of incubation. (A) Representative flow cytometry dot plots. (B) Apoptotic cell quantification (annexin V-FITC positive cells). […] Data are presented as the mean ± S.E.M. of at the least three independent experiments. * p < 0.05 as compared with the negative control by ANOVA, followed by the Student Newman-Keuls test. […] Its quadrant percentages are just as hard to read: 24 h about Q1 0.640%, Q2 5.23%, Q4 85.6%, Q3 8.47%; 48 h about Q1 0.430%, Q2 3.07%, Q4 91.0%, Q3 5.52%.
(§1) Light scattering features were determined by flow cytometry. The internucleosomal DNA fragmentation and cell cycle distribution were determined according to Nicoletti et al.. For apoptosis measurements, a FITC Annexin V Apoptosis Detection Kit I (BD Biosciences, San Jose, CA, USA) was used, and the analysis was performed, according to the manufacturer’s instructions. A protection assay using the pan-caspase inhibitor Z-VAD(OMe)-FMK (Cayman Chemical, Ann Arbor, MI, USA) was also evaluated. The mitochondrial transmembrane potential was determined by the retention of the dye rhodamine 123 [28]. The levels of ROS were measured, as previously described, using 2′,7′-dichlorofluorescin diacetate (DCF-DA, Sigma-Aldrich Co.). At least 1 × 10^4 events were recorded per sample using a BD LSRFortessa cytometer along with BD FACSDiva Software (BD Biosciences) and Flowjo Software 10 (Flowjo LCC, Ashland, OR, USA). The cellular debris was omitted from the analysis.
(In general: A flow cytometer gives signals particle by particle.)

Assay [3] concerns MRC-5 (human lung fibroblast). In words: Alamar blue (AB) cytotoxicity assay, MRC-5 noncancerous cells. The assay is classed as cell-based. Conditions: MRC5 non-cancer cells, 72 h.
In assay [4] the test system is HL-60 cells. In words: Cell morphology (May-Grunwald-Giemsa staining) and light scattering by flow cytometry. The assay is classed as cell-based, human. As to conditions: positive controls, DOX 2 µM, OXA 2.5 µM.
The test system of assay [5] is HL-60 cells. The assay is classed as cell-based, human. As to conditions: for DNA fragmentation (in words): positive controls, DOX 2 µM, 24 and 48 h. The protocol:
The internucleosomal DNA fragmentation and cell cycle distribution were assessed in HL-60 cells after 24 and 48 h of incubation with the [Ru(PPh3)2(Thy)(bipy)]PF6 complex in a DNA content-based assay using the dye propidium iodide (PI) and flow cytometry (Table 3). All DNA with a subdiploid size (sub-G0/G1) were considered to be fragmented. At concentrations of 1, 2, and 4 μM, the complex led to, respectively, 19.4%, 30.1%, and 36.2% DNA fragmentation after 24 h of incubation and to 12.5%, 26.7%, and 58.2% DNA fragmentation after 48 h of incubation.
as §1

Assay [6] deals with wild-type immortalized mouse embryonic fibroblasts (WT SV40 MEF). Kind of assay: Alamar blue (AB) cytotoxicity assay, WT SV40 MEF. As to conditions: Mus musculus, Fibroblast, 72 h. The class given is cell-based.
The subject of assay [7] is BAD gene knockout immortalized mouse embryonic fibroblasts (BAD KO SV40 MEF). Kind of assay: Alamar blue (AB) cytotoxicity assay, BAD KO SV40 MEF. The assay is classed as cell-based. As to conditions: Mus musculus, Fibroblast, 72 h.
The test system of assay [8] is HL-60 cells. As to conditions: 2 μM, TBE.

Where two headings read alike, the source gives them in different places.

For orientation: IC50 means the concentration needed to halve the response being measured. A higher IC50 goes with weaker potency. For the compound `O=C1[O][Pt]2([NH][C@@H]3CCCC[C@H]3[NH]2)[O]C1=O` [OXA, Oxaliplatin, reference compound], the IC50 in assay [1] amounted to 9.4 µM. The “Percentage of apoptotic cells (early apoptotic cells + late apoptotic cells)” value in the assay on HL-60 cells [2] is “caused an increase”. Further, in assay [3], the IC50 stood at 1.3 µM. The “Type of cell death” value in the assay on HL-60 cells [4] was “caused cell death by apoptosis”. Moreover, in the assay with HL-60 cells [5] (2.5 µM, 24 h), the “DNA content G0/G1” value was found to be 31.4 ± 3.0 %, the “DNA content G2/M” value is reported as 26.0 ± 3.6 %, the “DNA content S” value turned out to be 11.6 ± 2.3% and the “DNA content Sub-G0/G1 (DNA fragmentation)” value (“DNA content Sub-G0/G1” below) worked out at 21.9 ± 3.3 %. In the assay on HL-60 cells [5] (2.5 µM, 48 h), the “DNA content G0/G1” value is reported as 42.9 ± 2.8 %, the “DNA content G2/M” value came out at 19.1 ± 3.3%, the “DNA content S” value is on record as 14.2 ± 1.2% and the “DNA content Sub-G0/G1” value was 18.4 ± 4.4 %. Besides, in the assay on HL-60 cells [5] (OXA 2.5 µM), the Cell cycle arrest result was “cell cycle arrest at the G2/M phase” and the “DNA fragmentation (in words)” value is on record as “induced DNA fragmentation”.

Turning to `O=c1[nH]cc(F)c(=O)[nH]1` [5-fluorouracil], the IC50 is 5.7 µM in assay [6] and 11.2 µM in assay [7].

As to `COc1cccc2c1C(=O)c1c(O)c3c(c(O)c1C2=O)C[C@@](O)(C(=O)CO)C[C@@H]3O[C@H]1C[C@H](N)[C@H](O)[C@H](C)O1` [DOX, Doxorubicin, reference compound], the IC50 in assay [1] (Homo sapiens) is 5.1 µM; in assay [6], 0.8 µM; in assay [3] (Homo sapiens) it was 1.5 µM; in assay [7], 1.3 µM. The “Reduction of the number of viable cells” value was determined as 58.0% with HL-60 cells [8] (24 h) and 88.1% in the assay with HL-60 cells [8] (48 h). Moreover, the “Percentage of apoptotic cells (early apoptotic cells + late apoptotic cells)” value in the assay on HL-60 cells [2] is on record as “caused an increase”. The “Type of cell death” value in the assay on HL-60 cells [4] is “caused cell death by apoptosis”. In addition, the “DNA content G0/G1” value in the assay with HL-60 cells [5] (2 µM, 24 h) was determined as 19.9 ± 2.5 %; in the assay with HL-60 cells [5] (2 µM, 48 h), 21.9 ± 3.0 %. Besides, the “DNA content G2/M” value in the assay with HL-60 cells [5] (2 µM, 24 h) was 8.9 ± 1.5 %; in the assay on HL-60 cells [5] (2 µM, 48 h) it was 3.8 ± 0.9 %. Further, the “DNA content S” value in the assay with HL-60 cells [5] (2 µM, 24 h) stood at 6.6 ± 1.6 %; with HL-60 cells [5] (2 µM, 48 h), 6.5 ± 0.6 %. The “DNA content Sub-G0/G1” value with HL-60 cells [5] (2 µM, 24 h) is 58.6 ± 2.5 %; with HL-60 cells [5] (2 µM, 48 h), 65.4 ± 2.8 %. Further, the “DNA fragmentation (in words)” value with HL-60 cells [5] (OXA 2.5 µM) is listed as “induced DNA fragmentation”.

The record behind these values is paper PMC6032384 (International Journal of Molecular Sciences, 2018).
